How the values were obtained:
tubulin = biological target: T1, tubulin (Sus scrofa, UniProt P02554); experiment: Purified tubulin polymerization; assay type: biochemical; conditions: purified tubulin 3 mg/ml, 37°C
T1 construct: purchased Cytoskeleton BK006P
Method: A tubulin polymerization assay kit (Cytoskeleton, BK006P) was used. Briefly, 10 μl of CTXs with a concentration of 100 μM in the general tubulin buffer and 100 μl of tubulin (3 mg/ml) in TP buffer were added on ice. The 96-well plate was immediately placed in a microplate reader at 37°C.

[1] = MCF-7 xenograft model, survival; assay type: in vivo, BALB/c nude mice; conditions: MCF-7 model, 9.6 μmol/kg, n=6
Method: All animal experiments were conducted in accordance with protocols approved by the Institutional Animal Care and Use Committee of Peking Union Medical College. Male BALB/c nude mice (6–8 weeks old) and female KM mice (6–8 weeks old) were purchased from Charles River Laboratories (Beijing, China) and maintained under specific pathogen-free conditions.
MCF-7 Breast Cancer Model: Female BALB/c nude mice bearing MCF-7 xenografts (2×10^6 cells/mouse) were randomized into treatment groups as described above, with an adjusted dose of 9.6 μmol/kg for all CTX formulations.

thymus = experiment: Thymic toxicity in H22 tumor-bearing mice (thymus weight, thymocyte apoptosis); assay type: in vivo, KM mice
Method: H22 hepatoma model: Female KM mice were subcutaneously implanted with H22 cells (2×10^6 cells/mouse) and assigned to six groups: (a) Vehicle control; (b) CTX (9.6 μmol/kg in 5% glucose with 2.5% ethanol/2.5% Tween 80); (c) CTX-TTHA (9.6 μmol/kg in saline); (d) CTX-DTPA (9.6 μmol/kg in saline); (e) CTX-TTHA (19.1 μmol/kg in saline); (f) CTX-DTPA (19.1 μmol/kg in saline).
Gently mix 1×10^6 thymocytes with FITC Anexin V (5 μl) and PI (10 μl), and incubate in the dark for 15 minutes, RT. Analyze by flow cytometry. Thymocytes were stained with anti-mouse CD3e cyanine 5.5 (eBioscience, 85-45-0031-82), anti-CD4 PE (eBioscience, 85-12-0042-82), anti-CD8a FITC (4°C 30 min) and detected by flow cytometry.

T1 sequence (P02554 whole entry): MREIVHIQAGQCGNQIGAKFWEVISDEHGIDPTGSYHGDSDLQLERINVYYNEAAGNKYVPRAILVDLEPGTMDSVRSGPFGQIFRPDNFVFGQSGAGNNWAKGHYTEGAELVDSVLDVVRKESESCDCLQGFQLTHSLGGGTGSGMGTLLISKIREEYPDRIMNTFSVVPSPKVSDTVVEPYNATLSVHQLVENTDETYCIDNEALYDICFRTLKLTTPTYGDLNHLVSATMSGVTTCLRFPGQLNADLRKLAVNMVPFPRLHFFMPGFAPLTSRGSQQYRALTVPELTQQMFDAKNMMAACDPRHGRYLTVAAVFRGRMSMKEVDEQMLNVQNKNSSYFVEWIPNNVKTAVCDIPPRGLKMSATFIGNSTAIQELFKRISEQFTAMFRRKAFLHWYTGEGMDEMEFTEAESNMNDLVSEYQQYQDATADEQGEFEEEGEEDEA
T1 sequence (P02550 whole entry partner): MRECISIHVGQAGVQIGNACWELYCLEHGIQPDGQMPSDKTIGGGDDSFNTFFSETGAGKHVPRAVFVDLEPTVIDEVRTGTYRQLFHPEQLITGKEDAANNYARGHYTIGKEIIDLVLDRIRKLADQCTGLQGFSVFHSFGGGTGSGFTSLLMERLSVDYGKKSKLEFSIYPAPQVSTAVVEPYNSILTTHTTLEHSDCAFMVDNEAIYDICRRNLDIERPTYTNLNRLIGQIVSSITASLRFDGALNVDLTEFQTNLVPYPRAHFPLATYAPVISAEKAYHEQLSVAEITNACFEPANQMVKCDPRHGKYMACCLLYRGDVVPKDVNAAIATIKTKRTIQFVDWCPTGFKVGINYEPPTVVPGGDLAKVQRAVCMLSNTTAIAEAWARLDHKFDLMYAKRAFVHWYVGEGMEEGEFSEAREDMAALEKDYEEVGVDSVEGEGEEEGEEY

Row | SMILES | polymerization kinetics (tubulin) [mOD/min] | survival [1] [%] | thymic weight relative to normal (thymic atrophy) (thymus) | thymocyte apoptosis rate (thymus; Annexin V/PI flow cytometry) [%]
1 | COC1C(=O)C2(C)C(OC)CC3OCC3(OC(C)=O)C2C(OC(=O)c2ccccc2)C2(O)CC(OC(=O)C(OC(=O)CN(CCN(CCN(CC(=O)O)CC(=O)O)CC(=O)O)CC(=O)O)C(NC(=O)OC(C)(C)C)c3ccccc3)C(C)=C1C2(C)C (stereo not shown) [CTX-DTPA] | 43.7 ± 8.0 | – | – | –
2 | CO[C@H]1C(=O)[C@]2(C)[C@@H](OC)C[C@H]3OC[C@@]3(OC(C)=O)[C@H]2[C@H](OC(=O)c2ccccc2)[C@]2(O)C[C@H](OC(=O)[C@H](O)[C@@H](NC(=O)OC(C)(C)C)c3ccccc3)C(C)=C1C2(C)C [CTX, Cabazitaxel] | – | 83.3 | 31 % of normal weight | 66.8
